Series [1] concerns Blumeria graminis f.sp. hordei. Put plainly: Blumeria graminis test (barley)/protective. Type of series: in vivo. The following applies: barley plants, protective spray, 500 ppm active ingredient, evaluation 7 days after inoculation.
The subject of the next series is Leptosphaeria nodorum. In words: Leptosphaeria nodorum test (wheat)/protective. Type of series: in vivo. The following applies: wheat plants, protective spray, 500 ppm active ingredient, evaluation 8 days after inoculation.
The subject of a further series is Septoria tritici. In words: Septoria tritici test (wheat)/protective. The settings on record: wheat plants, protective spray, 500 ppm active ingredient, evaluation 21 days after inoculation. Type of series: in vivo.
In another series the test system is Sphaerotheca fuliginea. In words: Sphaerotheca test (cucumber)/protective. The settings on record: cucumber plants, protective spray, 500 ppm active ingredient, evaluation 7 days after inoculation.
The test system of a further series is Venturia inaequalis. In words: Venturia test (apple)/protective. The settings on record: apple plants, protective spray, 100 ppm active ingredient, evaluation 10 days after inoculation.
Series [2] can be described thus: logP by HPLC (EEC Directive 79/831 Annex V.A8). Type of series: physicochemical. The following applies: HPLC reversed-phase C18, method [a]: LC-MS, pH 2.7, 0.1% aqueous formic acid / acetonitrile, gradient 10% to 95% acetonitrile; for chromatographic logP: reversed-phase C18 HPLC column.
A further series relates to Puccinia triticina. Put plainly: Puccinia triticina test (wheat)/protective. It counts as in vivo. The settings on record: wheat plants, protective spray, 500 ppm active ingredient, evaluation 8 days after inoculation. The text has this:
Evaluation follows 8 days after the inoculation.

The test system of the next series is Fusarium culmorum. Put plainly: Fusarium test (wheat)/seed treatment. It counts as in vivo. The following applies: dose 50 g/dt, greenhouse 20° C. 14 days. How it is done:
(§1) The test was conducted under greenhouse conditions. Wheat seeds treated with an inventive active compound or a combination of inventive active compounds were sown in 6×6 cm vessels, into a mixture of steamed field soil and sand (1:1). The test compound(s) were dissolved in N-methyl-2-pyrrolidone and diluted to the desired concentration with water. Wheat kernels were inoculated with spores of Fusarium culmorum. The infected and ground kernels were distributed between the treated wheat seeds. The seeds were covered with a top layer of clay granules and incubated in a greenhouse at 20° C. for 14 days. Evaluation was effected by counting the plants which emerged.

For a further series, the system named is Rhizoctonia solani. Put plainly: Rhizoctonia test (cotton)/seed treatment. Type of series: in vivo. The settings on record: cottonseed treatment, dose 50 g/dt, greenhouse 20° C. 7 days. On the procedure:
The test was conducted under greenhouse conditions. Cottonseeds treated with an inventive active compound or a combination of inventive active compounds were sown in 6×6 cm vessels, into a mixture of steamed field soil and sand (1:1). The test compound(s) were dissolved in N-methyl-2-pyrrolidone and diluted to the desired concentration with water. Perlite was inoculated with spores of Rhizoctonia solani. The infected perlite was distributed between the treated cottonseeds. The seeds were covered with a top layer of clay granules and incubated in a greenhouse at 20° C. for 7 days.

The next series relates to Leptosphaeria maculans. In words: Leptosphaeria test (oilseed rape)/seed treatment. Type of series: in vivo. The following applies: rapeseed treatment, dose 50 g/dt, greenhouse 10° C. 14 days and 18° C. 7 days. How it is done: The test was conducted under greenhouse conditions. […] treated with an inventive active compound or a combination of inventive active compounds were sown in 6×6 cm vessels, into a mixture of steamed field soil and to sand (1:1). The test compound(s) were dissolved in N-methyl-2-pyrrolidone and diluted to the desired concentration with water. Perlite was inoculated with spores of Leptosphaeria maculans. The infected perlite was distributed between the treated […]. The seeds were covered with a top layer of steamed field soil and sand (1:1) and incubated in a greenhouse at 10° C. for 14 days and at 18° C. for 7 days.

The next series relates to Microdochium nivale. In words: Microdochium test (wheat)/seed treatment. It counts as in vivo. The settings on record: dose 50 g/dt, greenhouse 10° C. 21 days. How it is done: as §1, with “Microdochium nivale.” for “Fusarium culmorum.”, “steamed field soil and sand (1:1)” for “clay granules”, “10°” for “20°”, “21” for “14”, “days.” for “days. Evaluation was effected by counting the plants which emerged.”

The results in this text go back to patent US8440836B2, “Heterocyclic alkanol derivatives” (Bayer Intellectual Property GmbH, priority 2010, dated 2013).

Experimental for Sphaerotheca fuliginea: • Solvent: 49 parts by weight of N,N-dimethylformamide • Emulsifier: 1 part by weight of alkylaryl polyglycol ether
To produce an appropriate active ingredient formulation, 1 part by weight of active ingredient is mixed with the specified amounts of solvent and emulsifier, and the concentrate is diluted with water to the desired concentration. To test for protective activity, young cucumber plants are sprayed with the formulation of active ingredient at the stated application rate. 1 day after the treatment, the plants are inoculated with a spore suspension of Sphaerotheca fuliginea. The plants are then placed in a greenhouse at 70% relative air humidity and a temperature of 23° C. Evaluation follows 7 days after the inoculation.
Experimental for Venturia inaequalis: • Solvent: 24.5 parts by weight of acetone • 24.5 parts by weight of dimethylacetamide • Emulsifier: 1 part by weight of alkylaryl polyglycol ether
To produce an appropriate active ingredient formulation, 1 part by weight of active ingredient is mixed with the specified amounts of solvent and emulsifier, and the concentrate is diluted with water to the desired concentration. To test for protective activity, young plants are sprayed with the active ingredient formulation at the stated application rate. After the spray coating has dried on, the plants are inoculated with an aqueous conidia suspension of the apple scab pathogen Venturia inaequalis and then remain in an incubation cabin at about 20° C. and 100% relative air humidity for 1 day. The plants are then placed in a greenhouse at about 21° C. and a relative air humidity of about 90%. Evaluation follows 10 days after the inoculation.

Turning to `CC(C)(C)C(O)(COc1ccc(C2CC2)cc1)c1cncs1` (stereo not drawn) [Compound 79], the efficacy in [1] worked out at 100%; in the series with Leptosphaeria nodorum, 86%; with Septoria tritici it was 88%; with Sphaerotheca fuliginea it was 93%; in the series with Venturia inaequalis, 100%. Further, in series [2], the logP result was “logP 3.73^[a]; [M + H]^+ = 318”.
Turning to `CC(C)(C)C(O)(COc1ccc(Cl)cc1)c1cnc(S)s1` (stereo not drawn) [Compound 12], the results for the efficacy (in series [1]; with Leptosphaeria nodorum; in the series with Sphaerotheca fuliginea) were 89%, 86% and 98%, respectively. Further, the chromatographic logP (as a rule, lipophilicity estimated from chromatographic retention) in series [2] stood at 3.06.
Turning to `CC1(C(O)(COc2ccc(I)cc2)c2cncs2)CCCCC1` (stereo not drawn) [Compound 25], the efficacy with Septoria tritici is recorded as 86%; with Sphaerotheca fuliginea, 100%; with Puccinia triticina, 78%. Moreover, the logP result in series [2] was “logP 4.53^[a]; [M + H]^+ = 444”.
Regarding `CC(C)(C)C(O)(COc1ccc(SC(F)(F)F)cc1)c1cncs1` (stereo not drawn) [Compound 41], the efficacy turned out to be 100% in series [1]; 100% in the series with Leptosphaeria nodorum; 71% in the series with Septoria tritici; 95% in the series with Sphaerotheca fuliginea; 95% in the series with Venturia inaequalis; 100% with Puccinia triticina. Besides, the logP result in series [2] was “logP 3.98^[a]; [M + H]^+ = 378”.
As to `CC(C)(C)C(O)(COc1ccc(I)cc1)c1cncs1` (stereo not drawn) [Compound 1], the efficacy in series [1] is listed as 100%; in the series on Leptosphaeria nodorum, 100%; with Septoria tritici, 100%; in the series with Sphaerotheca fuliginea it was 100%; in the series on Venturia inaequalis, 99%; in the series on Puccinia triticina it was 100%. In addition, the “efficiency (emerged plants)” value came out at 100% in the series with Fusarium culmorum and 70% in the series on Leptosphaeria maculans. Moreover, the “efficiency (emerged and diseased plants)” value with Rhizoctonia solani stood at 70%.
For `CC(C)(/C=C/Cl)C(O)(COc1ccc(I)cc1)c1cncs1` (stereo not drawn) [Compound 53], the efficacy in series [1] is 94%; in the series with Leptosphaeria nodorum it was 83%; with Septoria tritici, 100%; in the series on Sphaerotheca fuliginea, 94%; with Puccinia triticina, 100%. For the same compound, in series [2], the logP entry was “logP 3.92^[a]; [M + H]^+ = 450”.
On to `CC1(C(O)(COc2ccc(Cl)cc2)c2cncs2)CC1` (stereo not drawn) [Compound 14], for which the efficacy in the series on Sphaerotheca fuliginea is on record as 95%; with Venturia inaequalis, 98%. Besides, in series [2], the logP result is “logP 3.11^[a]; [M + H]^+ = 310; 312”.
On to `OC(Cc1cncs1)(Cc1ccccc1Cl)C1(Cl)CC1` (stereo not drawn) [Compound 57], for which the efficacy was 100% in series [1]; 88% with Leptosphaeria nodorum; 70% in the series on Septoria tritici; 100% in the series with Sphaerotheca fuliginea; 100% in the series with Venturia inaequalis. Besides, the “efficiency (emerged plants)” value is on record as 89% with Fusarium culmorum, 78% with Microdochium nivale and 80% in the series on Leptosphaeria maculans. For the same compound, the “efficiency (emerged and diseased plants)” value in the series with Rhizoctonia solani worked out at 80%.
As for `CC(C)(C)C(O)(COc1ccc(F)cc1)c1cncs1` (stereo not drawn) [Compound 42], the efficacy turned out to be 100% in series [1], 94% in the series with Sphaerotheca fuliginea and 89% in the series on Puccinia triticina. Besides, the logP entry in [2] was “logP 2.91^[a]; [M + H]^+ = 296”.
In the case of `CC(CF)(CF)C(O)(COc1ccc(I)cc1)c1cncs1` (stereo not drawn) [Compound 4], the efficacy (in series [1]; with Leptosphaeria nodorum; in the series on Septoria tritici; in the series with Sphaerotheca fuliginea; in the series with Puccinia triticina) was 100% each time. The compound further came in with a chromatographic logP in series [2] of 3.16.
Consider `CC1(C(O)(COc2ccc(Br)cc2)c2cncs2)CCCCC1` (stereo not drawn) [Compound 33], for which the efficacy stood at 89% in series [1], 100% with Sphaerotheca fuliginea, 99% in the series on Venturia inaequalis and 83% in the series on Puccinia triticina. In addition, the logP entry in series [2] was “logP 4.37^[a]; [M + H]^+ = 396/398”.
As to `CC(C)(C)C(O)(COc1ccc(OC(F)(F)F)cc1)c1cncs1` (stereo not drawn) [Compound 20], the efficacy in [1] amounted to 100%; with Leptosphaeria nodorum, 100%; with Septoria tritici, 100%; in the series on Sphaerotheca fuliginea it was 88%; in the series on Puccinia triticina it was 100%.
In the case of `OC(Cc1cncs1)(Cc1ccccc1F)C1(Cl)CC1` (stereo not drawn) [Compound 60], the efficacy in [1] stood at 100%; in the series on Leptosphaeria nodorum it was 100%; with Septoria tritici, 94%; in the series on Sphaerotheca fuliginea it was 100%; with Venturia inaequalis, 100%; in the series on Puccinia triticina, 95%. Besides, the “efficiency (emerged plants)” value in the series on Fusarium culmorum came to 89%; in the series with Microdochium nivale, 100%; in the series on Leptosphaeria maculans it was 80%. Further, in the series on Rhizoctonia solani, the “efficiency (emerged and diseased plants)” value was determined as 90%. For the same compound, the logP result in series [2] is “logP 3.06^[a]; [M + H]^+ = 312”.
On to `CO/N=C/c1ccc(OCC(O)(c2cncs2)C(C)(C)C)cc1` (stereo not drawn) [Compound 3], for which the efficacy in series [1] was found to be 100%; in the series with Leptosphaeria nodorum it was 92%; with Septoria tritici, 83%; in the series with Venturia inaequalis it was 100%; in the series on Puccinia triticina, 89%.
For the compound `CC(C)(C)C(O)(COc1ccc(Br)cc1)c1cncs1` (stereo not drawn) [Compound 2], the efficacy in series [1] was found to be 100%; in the series on Leptosphaeria nodorum, 100%; in the series on Septoria tritici, 100%; in the series on Sphaerotheca fuliginea it was 99%; with Venturia inaequalis it was 93%; in the series with Puccinia triticina, 100%.
